Data set [1] is described as follows: MTT assay, WI-38 normal human lung fibroblast cells. Conditions: human, WI-38 normal lung fibroblast cells. The class given is cell-based. The source says: (§1) Mammary gland (MCF-7;# ATCC HTB-22), colorectal adenocarcinoma (HCT-116; # ATCC CCL-247)), hepatocellular carcinoma (HepG-2; #ATCC HB-8065), and human lung fibroblast (WI-38; # ATCC CCL-75). The ATCC cell line was obtained via the Holding Company for Biological Products and Vaccines (VACSERA), Cairo, Egypt.
(§2) The MTT test was utilized to ascertain the pyrazolone derivatives’ inhibitory effects on cell growth using the aforementioned cell lines. This colorimetric assay is based on the transformation of yellow tetrazolium bromide (MTT) by mitochondrial succinate dehydrogenase in living cells into a purple formazan derivative. The RPMI-1640 medium was supplemented with 10% fetal bovine serum to cultivate cell lines. At 37° C in an incubator with 5% CO2, 100 units/mL of penicillin and 100 µg/mL of streptomycin were introduced as antibiotics. The cell lines were seeded by 1.0 × 10^4 cells/well in a 96-well plate and kept at 37 °C for 24 h with 5% CO2. […] The colorimetric test is performed at 630 nm absorbance and recorded using a plate reader (EXL 800, USA)[32].
(§3) GraphPad Prism 6 (San Diego, CA) (GraphPad Prism 6, https://www.graphpad.com/scientific-software/prism/) was used to calculate the IC50 values and the data was expressed as mean ± SE.

The nature of data set [2]: DPPH free radical scavenging (antioxidant) assay. Conditions: in-vitro. On the procedure:
The synthesized pyrazolone derivatives’ capacity to scavenge free radicals DPPH was assessed using a modified Zheleva-Dimitrova technique. Also, the DPPH radical was investigated to L-ascorbic acid with concentrations (10–100 μM) that serving as the standard positive control and the scavenging percent was calculated by Eq. 1.1 [drawing 1]
A general note: Loss of DPPH colour is used to gauge radical scavenging.

For data set [3], the system named is HCT-116, HepG2, and MCF-7. Briefly: MTT assay, whole panel of cancer cell lines (result in words). Format: cell-based, human. To be noted: 48 h, compared with Sorafenib.
Description: as §1
The MTT test was utilized to ascertain the pyrazolone derivatives’ inhibitory effects on cell growth using the aforementioned cell lines. This colorimetric assay is based on the transformation of yellow tetrazolium bromide (MTT) by mitochondrial succinate dehydrogenase in living cells into a purple formazan derivative. The RPMI-1640 medium was supplemented with 10% fetal bovine serum to cultivate cell lines. At 37° C in an incubator with 5% CO2, 100 units/mL of penicillin and 100 µg/mL of streptomycin were introduced as antibiotics. The cell lines were seeded by 1.0 × 10^4 cells/well in a 96-well plate and kept at 37 °C for 24 h with 5% CO2. Following incubation, the cells were subjected to several concentrations of newly synthesized pyrazolone derivatives and left for 48 h incubation.20 µL of a 5 mg/mL MTT solution was added and incubated for 4 h after the drug treatment. To dissolve the purple formazan produced in each well, 100 µL of dimethyl sulfoxide (DMSO) was applied. The colorimetric test is performed at 630 nm absorbance and recorded using a plate reader (EXL 800, USA)[32].
as §3
A general note: Tetrazolium assays rely on reduction of a dye to a coloured formazan, in cell work by metabolically active cells.

For another data set, the system named is HCT-116. The data set is described as follows: MTT assay, HCT-116 colorectal adenocarcinoma cells. To be noted: Homo sapiens, 48 h, mean ± SE, read-out: IC50 against HCT-116. Format: cell-based.
The test system of a further data set is HepG-2. Briefly: MTT assay, HepG-2 hepatocellular carcinoma cells. The class given is cell-based. To be noted: Homo sapiens, HepG2, 48 h, mean ± SE, read-out: IC50 against HepG-2.
A further data set has as its system MCF-7. Briefly: MTT assay, MCF-7 mammary gland cells. Format: cell-based. To be noted: Homo sapiens, MCF7, 48 h, mean ± SE, read-out: IC50 against MCF-7.
In another data set the test system is WI-38. The data set is described as follows: MTT assay, WI-38 normal human lung fibroblast cells. Conditions: 48 h, compared with SOR. The class given is cell-based.
Description: as §1, §2, §3

The compound `CNC(=O)c1cc(Oc2ccc(NC(=O)Nc3ccc(Cl)c(C(F)(F)F)c3)cc2)ccn1` [Sorafenib, reference compound] showed a half-maximal inhibitory concentration (IC50) at 48 h in data set [1] of 20.3 ± 0.45 µM.

Take `CN(C)c1ccc(-c2cc(-c3ccc(N=NC4C(=O)N(c5ccccc5)N=C4N)cc3)nc(=S)[nH]2)cc1` (stereo not drawn) [Compound 8, 3-amino-4-((4-(6-(4-(dimethylamino)phenyl)-2-thioxo-1,2-dihydropyrimidin-4-yl)phenyl)diazenyl)-1-phenyl-1H-pyrazol-5(4H)-one]: the melting point is 103 °C. Half-maximal inhibition in data set [2] (IC50) was put at 65.54 ± 0.32 µM. In addition, the “Impact on all panels of cancer cell lines (in words)” value (from here on “Impact on all panels”) in data set [3] is “moderate to weak impact”.

As for `CN(C)c1ccc(C2C=C(c3ccc(/N=N/C4C(=O)N(c5ccccc5)N=C4N)cc3)OC(N)=C2C#N)cc1` (stereo not drawn) [Compound 9, (E)-2-amino-6-(4-((3-amino-5-oxo-1-phenyl-4,5-dihydro-1H-pyrazole-4-yl)diazenyl)phenyl)-4-(4-(dimethylamino)phenyl)-4H-pyran-3-carbonitrile], the melting point is 139 °C. This compound also returned an IC50 in data set [2] of 47.07 ± 0.24 µM. Further, the “Impact on all panels” value in data set [3] was “moderate to weak impact”.

In the case of `CN(C)c1ccc(-c2cc(-c3ccc(/N=N/C4C(=O)N(c5ccccc5)N=C4N)cc3)[nH]c(=O)c2C#N)cc1` (stereo not drawn) [Compound 11, (E)-6-(4-((3-amino-5-oxo-1-phenyl-4,5-dihydro-1H-pyrazol-4-yl)diazenyl)phenyl)-4-(4-(dimethylamino)phenyl)-2-oxo-1,2-dihydropyridine-3-carbonitrile], the melting point came out at 92 °C. The compound further showed a concentration for half-maximal inhibition (IC50) in data set [2] of 53.67 ± 0.29 µM. For the same compound, in data set [3], the “Impact on all panels” value was “moderate to weak impact”.

“3-amino-4-((4-(6-(4-(dimethylamino)phenyl)-2-oxo-1,2-dihydropyridine-4-yl)phenyl)diazenyl)-1-phenyl-1H-pyrazole-5(4H)-one [Compound 7]” registered a half-inhibitory concentration (IC50) in data set [2] of 93.7 ± 0.47 µM. Further, the “Impact on all panels” value in data set [3] is listed as “moderate to weak impact”.

Turning to `CC(=O)N1N=C(c2ccc(N=NC3C(=O)N(c4ccccc4)N=C3N)cc2)CC1c1ccc(N(C)C)cc1` (stereo not drawn) [Compound 6, 4-((4-(1-acetyl-5-(4-(dimethylamino)phenyl)-4,5-dihydro-1H-pyrazole-3-yl)phenyl)diazenyl)-3-amino-1-phenyl-1H-pyrazole-5(4H)-one], the melting point came to 74 °C. Besides, in data set [2], the half-inhibitory concentration (IC50) was determined as 32.4 ± 0.2 µM. The IC50 with HCT-116 worked out at 16.5 ± 1.3 µM. The IC50 in the data set with HepG-2 is 25.6 ± 1.7 µM. In addition, the IC50 with MCF-7 worked out at 19.8 ± 1.5 µM.

On to `CN(C)c1ccc(-c2cc(-c3ccc(/N=N/C4C(=O)N(c5ccccc5)N=C4N)cc3)nc(N)c2C#N)cc1` (stereo not drawn) [Compound 10, (E)-2-amino-6-(4-((3-amino-5-oxo-1-phenyl-4,5-dihydro-1H-pyrazole-4-yl)diazenyl)phenyl)-4-(4-(dimethylamino)phenyl)nicotinonitrile], for which the melting point is 116 °C. The compound further gave an IC50 in data set [2] of 74.3 ± 0.38 µM. The “Impact on all panels” value in data set [3] is on record as “moderate to weak impact”.

`CN(C)c1ccc(C2CC(c3ccc(N=NC4C(=O)N(c5ccccc5)N=C4N)cc3)=NN2c2ccccc2)cc1` (stereo not drawn) [Compound 4, 3-amino-4-((4-(5-(4-(dimethylamino)phenyl)-1-phenyl-4,5-dihydro-1H-pyrazole-3-yl)phenyl)diazenyl)-1-phenyl-1H-pyrazole-5(4H)-one]: the melting point came to 96 °C. For the same compound, the half-inhibitory concentration (IC50) in data set [2] is 19.88 ± 0.15 µM. In addition, the IC50 with HCT-116 is 7.67 ± 0.5 µM. Also, the IC50 with HepG-2 is 5.85 ± 0.4 µM. Moreover, the IC50 in the data set on MCF-7 was found to be 6.97 ± 0.5 µM. Also, in the data set on WI-38, the “Cytotoxic effect on WI-38 normal cells (in words)” value is on record as “no cytotoxic effects”.

In data set [2], `O=C1O[C@H]([C@@H](O)CO)C(O)=C1O` [L-ascorbic acid, reference compound] registered an IC50 of 16.81 ± 0.1 µM.

As usually defined, the IC50 is the concentration needed to halve the response being measured. What is called melting point is the temperature, or range, at which the solid turns liquid.

The record behind these values is publication PMC11582634, “Discovering the inhibition of YAP/TEAD Hippo signaling pathway via new pyrazolone derivatives: synthesis, molecular docking and biological investigations” (Scientific Reports, 2024).
